In ChEMBL document CHEMBL3991601, “The target landscape of clinical kinase drugs” (Science, 2017):
Values belong to the compound of their own block, whether it stands above or below them. Activity calls are given as the source filed them.

Columns and labels:
[1] = biological target: Cyclin-dependent kinase 10 (Homo sapiens, UniProt Q15131)
[2] = biological target: Tyrosine-protein kinase JAK2 (Homo sapiens, UniProt O60674)
[3] = biological target: T1, Tyrosine-protein kinase Mer (Homo sapiens, UniProt Q12866)
T1 sequence (Q12866 whole entry): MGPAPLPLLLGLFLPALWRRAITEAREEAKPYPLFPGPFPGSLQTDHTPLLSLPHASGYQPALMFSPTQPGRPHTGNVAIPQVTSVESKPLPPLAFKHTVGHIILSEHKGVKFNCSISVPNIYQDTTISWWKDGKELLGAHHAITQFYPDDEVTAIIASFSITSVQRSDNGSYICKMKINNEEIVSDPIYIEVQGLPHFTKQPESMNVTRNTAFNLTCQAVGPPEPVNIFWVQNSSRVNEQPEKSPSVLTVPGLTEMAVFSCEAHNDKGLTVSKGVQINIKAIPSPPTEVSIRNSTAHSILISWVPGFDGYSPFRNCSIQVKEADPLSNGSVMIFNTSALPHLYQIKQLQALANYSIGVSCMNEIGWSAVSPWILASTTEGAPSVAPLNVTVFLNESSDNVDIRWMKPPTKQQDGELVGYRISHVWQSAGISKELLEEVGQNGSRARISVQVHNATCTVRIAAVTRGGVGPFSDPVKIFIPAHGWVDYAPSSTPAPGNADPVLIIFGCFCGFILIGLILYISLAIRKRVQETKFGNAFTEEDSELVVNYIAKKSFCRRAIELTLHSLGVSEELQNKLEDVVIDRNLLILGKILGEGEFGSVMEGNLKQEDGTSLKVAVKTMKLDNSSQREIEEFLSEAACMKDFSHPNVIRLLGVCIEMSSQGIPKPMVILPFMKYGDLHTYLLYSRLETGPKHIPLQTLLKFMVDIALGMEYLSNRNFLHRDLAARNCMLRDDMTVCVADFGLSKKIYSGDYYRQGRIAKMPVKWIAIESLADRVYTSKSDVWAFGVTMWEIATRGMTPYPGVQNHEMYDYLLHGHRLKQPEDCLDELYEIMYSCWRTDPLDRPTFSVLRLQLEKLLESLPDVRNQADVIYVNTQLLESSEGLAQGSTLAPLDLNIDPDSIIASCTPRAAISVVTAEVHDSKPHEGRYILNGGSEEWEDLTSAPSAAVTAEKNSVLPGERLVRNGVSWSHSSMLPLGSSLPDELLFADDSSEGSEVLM

[4] = biological target: ALK tyrosine kinase receptor (Homo sapiens, UniProt Q9UM73); format: subcellular, K-562, COLO 205, SK-N-BE(2) and MV-4-11, Cell lysate; settings: read-out: Kd apparent
ALK tyrosine kinase receptor, sequence (Q9UM73 whole entry): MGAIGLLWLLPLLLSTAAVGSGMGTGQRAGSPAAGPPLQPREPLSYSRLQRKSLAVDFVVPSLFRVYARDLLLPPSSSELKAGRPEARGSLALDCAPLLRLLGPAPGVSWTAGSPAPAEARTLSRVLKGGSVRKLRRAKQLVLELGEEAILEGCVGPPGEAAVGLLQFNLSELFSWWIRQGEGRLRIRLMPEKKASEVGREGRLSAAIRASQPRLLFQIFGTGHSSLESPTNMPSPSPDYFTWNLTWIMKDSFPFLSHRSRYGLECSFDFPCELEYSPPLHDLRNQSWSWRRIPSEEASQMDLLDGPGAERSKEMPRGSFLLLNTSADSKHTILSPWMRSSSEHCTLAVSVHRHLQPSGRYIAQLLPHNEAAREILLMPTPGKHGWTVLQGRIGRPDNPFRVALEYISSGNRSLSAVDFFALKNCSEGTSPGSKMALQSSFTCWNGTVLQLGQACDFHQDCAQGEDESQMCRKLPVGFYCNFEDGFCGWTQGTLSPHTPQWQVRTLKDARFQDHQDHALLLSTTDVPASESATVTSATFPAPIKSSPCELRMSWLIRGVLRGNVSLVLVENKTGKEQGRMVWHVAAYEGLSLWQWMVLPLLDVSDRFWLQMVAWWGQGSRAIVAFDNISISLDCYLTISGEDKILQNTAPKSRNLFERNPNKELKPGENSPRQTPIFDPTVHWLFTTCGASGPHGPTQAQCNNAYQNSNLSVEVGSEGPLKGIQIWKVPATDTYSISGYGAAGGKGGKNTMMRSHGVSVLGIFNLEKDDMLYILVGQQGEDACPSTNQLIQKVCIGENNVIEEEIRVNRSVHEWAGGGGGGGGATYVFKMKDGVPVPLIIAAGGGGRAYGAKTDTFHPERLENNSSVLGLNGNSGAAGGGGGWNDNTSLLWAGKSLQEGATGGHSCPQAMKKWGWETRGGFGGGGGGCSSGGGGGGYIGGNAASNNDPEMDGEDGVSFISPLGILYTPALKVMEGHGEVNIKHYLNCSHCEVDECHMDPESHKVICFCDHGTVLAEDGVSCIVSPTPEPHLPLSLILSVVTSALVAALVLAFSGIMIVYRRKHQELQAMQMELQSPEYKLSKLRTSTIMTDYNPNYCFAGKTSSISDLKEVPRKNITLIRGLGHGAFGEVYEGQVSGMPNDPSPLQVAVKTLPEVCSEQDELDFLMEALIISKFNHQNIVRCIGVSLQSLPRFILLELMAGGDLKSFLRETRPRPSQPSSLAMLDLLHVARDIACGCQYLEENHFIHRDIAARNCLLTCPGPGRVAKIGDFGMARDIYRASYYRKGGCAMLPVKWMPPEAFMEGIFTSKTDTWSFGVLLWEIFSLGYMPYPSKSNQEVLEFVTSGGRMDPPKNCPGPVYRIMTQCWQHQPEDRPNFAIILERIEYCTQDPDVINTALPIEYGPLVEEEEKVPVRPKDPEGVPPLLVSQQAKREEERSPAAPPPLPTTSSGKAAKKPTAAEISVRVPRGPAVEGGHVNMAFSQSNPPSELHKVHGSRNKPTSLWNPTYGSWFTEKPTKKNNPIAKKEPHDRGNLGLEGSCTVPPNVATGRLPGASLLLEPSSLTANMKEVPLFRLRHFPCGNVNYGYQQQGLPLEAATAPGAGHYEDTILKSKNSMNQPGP

[5] = biological target: Ras-related C3 botulinum toxin substrate 1 (Homo sapiens, UniProt P63000)
[6] = biological target: T2, General transcription and DNA repair factor IIH helicase subunit XPD (Homo sapiens, UniProt P18074)
T2 sequence (P18074 whole entry): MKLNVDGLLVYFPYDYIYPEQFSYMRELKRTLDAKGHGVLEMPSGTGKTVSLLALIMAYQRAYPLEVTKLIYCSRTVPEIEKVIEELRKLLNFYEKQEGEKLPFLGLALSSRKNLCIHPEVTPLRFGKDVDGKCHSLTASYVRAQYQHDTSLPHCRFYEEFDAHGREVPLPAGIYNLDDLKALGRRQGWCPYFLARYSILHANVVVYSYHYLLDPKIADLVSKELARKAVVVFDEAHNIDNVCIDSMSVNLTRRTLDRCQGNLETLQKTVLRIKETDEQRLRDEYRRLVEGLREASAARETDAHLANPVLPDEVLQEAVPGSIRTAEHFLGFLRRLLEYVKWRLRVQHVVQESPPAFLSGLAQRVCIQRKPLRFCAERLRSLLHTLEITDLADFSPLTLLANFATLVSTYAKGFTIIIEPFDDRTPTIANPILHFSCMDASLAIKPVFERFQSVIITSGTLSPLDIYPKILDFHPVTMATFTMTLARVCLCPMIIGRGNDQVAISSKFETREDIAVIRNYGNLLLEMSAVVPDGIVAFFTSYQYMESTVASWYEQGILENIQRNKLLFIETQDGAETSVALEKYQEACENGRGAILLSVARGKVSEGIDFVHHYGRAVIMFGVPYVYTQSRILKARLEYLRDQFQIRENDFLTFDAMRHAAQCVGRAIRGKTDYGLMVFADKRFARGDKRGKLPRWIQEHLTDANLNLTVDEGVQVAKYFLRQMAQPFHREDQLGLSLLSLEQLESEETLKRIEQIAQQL

[7] = biological target: 5'-AMP-activated protein kinase subunit gamma-1 (Homo sapiens, UniProt P54619)
5'-AMP-activated protein kinase subunit gamma-1, sequence (P54619 whole entry): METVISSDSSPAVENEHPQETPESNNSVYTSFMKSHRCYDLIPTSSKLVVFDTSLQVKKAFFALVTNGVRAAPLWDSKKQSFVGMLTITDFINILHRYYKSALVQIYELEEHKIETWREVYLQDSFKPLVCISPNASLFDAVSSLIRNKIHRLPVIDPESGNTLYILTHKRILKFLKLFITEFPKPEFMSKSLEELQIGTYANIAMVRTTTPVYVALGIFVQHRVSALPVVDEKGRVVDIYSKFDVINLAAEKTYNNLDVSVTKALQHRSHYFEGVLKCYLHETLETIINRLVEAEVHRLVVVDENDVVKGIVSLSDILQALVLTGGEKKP

[8] = biological target: 5'-AMP-activated protein kinase subunit gamma-2 (Homo sapiens, UniProt Q9UGJ0)
5'-AMP-activated protein kinase subunit gamma-2, sequence (Q9UGJ0 whole entry): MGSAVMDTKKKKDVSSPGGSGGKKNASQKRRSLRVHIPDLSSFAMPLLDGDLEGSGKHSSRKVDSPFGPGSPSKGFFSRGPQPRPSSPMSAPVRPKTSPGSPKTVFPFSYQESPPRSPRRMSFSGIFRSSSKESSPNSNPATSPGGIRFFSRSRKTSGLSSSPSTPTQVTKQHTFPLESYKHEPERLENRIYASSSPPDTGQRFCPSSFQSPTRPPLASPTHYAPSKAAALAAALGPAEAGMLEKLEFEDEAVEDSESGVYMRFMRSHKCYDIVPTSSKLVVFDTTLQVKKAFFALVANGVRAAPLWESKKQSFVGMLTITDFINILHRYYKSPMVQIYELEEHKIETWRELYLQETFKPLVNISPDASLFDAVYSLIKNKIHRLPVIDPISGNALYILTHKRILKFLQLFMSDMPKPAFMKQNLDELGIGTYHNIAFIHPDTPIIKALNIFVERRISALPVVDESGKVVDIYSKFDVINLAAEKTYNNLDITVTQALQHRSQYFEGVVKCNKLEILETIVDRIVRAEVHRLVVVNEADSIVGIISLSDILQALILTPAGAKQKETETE

[9] = biological target: T3, Uncharacterized protein FLJ45252 (Homo sapiens, UniProt Q6ZSR9)
T3 sequence (Q6ZSR9 whole entry): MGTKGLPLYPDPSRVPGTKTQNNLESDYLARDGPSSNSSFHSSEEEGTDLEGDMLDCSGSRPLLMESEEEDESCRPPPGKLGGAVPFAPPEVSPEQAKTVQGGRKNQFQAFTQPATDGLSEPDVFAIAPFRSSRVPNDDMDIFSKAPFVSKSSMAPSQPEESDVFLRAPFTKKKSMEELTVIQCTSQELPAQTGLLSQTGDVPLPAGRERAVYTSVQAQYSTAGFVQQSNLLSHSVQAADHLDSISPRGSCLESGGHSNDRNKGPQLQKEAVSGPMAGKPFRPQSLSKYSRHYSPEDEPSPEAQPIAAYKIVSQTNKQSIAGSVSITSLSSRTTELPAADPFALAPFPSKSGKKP

[10] = biological target: Cyclin-dependent kinase 18 (Homo sapiens, UniProt Q07002)
Cyclin-dependent kinase 18, sequence (Q07002 whole entry): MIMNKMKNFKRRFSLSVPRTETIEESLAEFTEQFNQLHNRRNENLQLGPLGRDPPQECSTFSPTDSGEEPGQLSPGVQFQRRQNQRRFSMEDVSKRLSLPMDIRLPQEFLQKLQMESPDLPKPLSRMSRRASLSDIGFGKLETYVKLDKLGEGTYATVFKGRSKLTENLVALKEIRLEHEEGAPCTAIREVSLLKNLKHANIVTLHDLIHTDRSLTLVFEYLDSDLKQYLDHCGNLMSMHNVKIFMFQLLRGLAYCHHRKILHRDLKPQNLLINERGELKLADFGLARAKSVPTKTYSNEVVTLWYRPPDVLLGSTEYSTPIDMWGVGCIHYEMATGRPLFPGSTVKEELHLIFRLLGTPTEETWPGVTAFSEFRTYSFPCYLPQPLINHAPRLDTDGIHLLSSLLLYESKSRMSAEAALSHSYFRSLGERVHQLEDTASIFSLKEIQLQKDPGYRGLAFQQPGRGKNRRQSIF

[11] = biological target: Activin receptor type-1-like (Homo sapiens, UniProt P37023)
Activin receptor type-1-like, sequence (P37023 whole entry): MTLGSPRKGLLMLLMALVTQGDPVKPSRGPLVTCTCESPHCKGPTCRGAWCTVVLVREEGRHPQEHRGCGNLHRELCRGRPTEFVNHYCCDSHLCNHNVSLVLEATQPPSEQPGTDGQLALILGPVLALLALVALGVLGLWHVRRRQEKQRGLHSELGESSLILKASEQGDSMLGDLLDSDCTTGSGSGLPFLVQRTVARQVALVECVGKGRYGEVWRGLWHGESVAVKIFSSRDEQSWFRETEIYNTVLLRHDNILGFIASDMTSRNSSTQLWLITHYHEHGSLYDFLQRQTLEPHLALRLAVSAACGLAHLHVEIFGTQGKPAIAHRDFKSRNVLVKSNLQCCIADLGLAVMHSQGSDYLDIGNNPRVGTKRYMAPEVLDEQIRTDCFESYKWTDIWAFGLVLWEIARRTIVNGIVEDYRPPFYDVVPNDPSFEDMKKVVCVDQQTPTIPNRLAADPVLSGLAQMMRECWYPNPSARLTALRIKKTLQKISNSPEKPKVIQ
Also: in the data inactive means no Kd found up to 30 µM.

Cyclin-dependent kinase 10, sequence (Q15131 whole entry): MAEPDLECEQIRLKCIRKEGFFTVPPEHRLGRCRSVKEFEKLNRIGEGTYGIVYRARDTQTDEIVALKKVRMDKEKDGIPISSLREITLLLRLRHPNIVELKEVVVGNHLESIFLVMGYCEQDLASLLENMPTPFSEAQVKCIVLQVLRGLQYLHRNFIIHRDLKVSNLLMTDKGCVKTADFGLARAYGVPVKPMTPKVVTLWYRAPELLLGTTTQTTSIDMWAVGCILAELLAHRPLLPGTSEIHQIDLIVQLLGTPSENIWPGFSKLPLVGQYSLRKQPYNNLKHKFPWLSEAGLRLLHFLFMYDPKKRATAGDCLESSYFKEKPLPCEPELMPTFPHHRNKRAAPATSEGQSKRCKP
Tyrosine-protein kinase JAK2, sequence (O60674 whole entry): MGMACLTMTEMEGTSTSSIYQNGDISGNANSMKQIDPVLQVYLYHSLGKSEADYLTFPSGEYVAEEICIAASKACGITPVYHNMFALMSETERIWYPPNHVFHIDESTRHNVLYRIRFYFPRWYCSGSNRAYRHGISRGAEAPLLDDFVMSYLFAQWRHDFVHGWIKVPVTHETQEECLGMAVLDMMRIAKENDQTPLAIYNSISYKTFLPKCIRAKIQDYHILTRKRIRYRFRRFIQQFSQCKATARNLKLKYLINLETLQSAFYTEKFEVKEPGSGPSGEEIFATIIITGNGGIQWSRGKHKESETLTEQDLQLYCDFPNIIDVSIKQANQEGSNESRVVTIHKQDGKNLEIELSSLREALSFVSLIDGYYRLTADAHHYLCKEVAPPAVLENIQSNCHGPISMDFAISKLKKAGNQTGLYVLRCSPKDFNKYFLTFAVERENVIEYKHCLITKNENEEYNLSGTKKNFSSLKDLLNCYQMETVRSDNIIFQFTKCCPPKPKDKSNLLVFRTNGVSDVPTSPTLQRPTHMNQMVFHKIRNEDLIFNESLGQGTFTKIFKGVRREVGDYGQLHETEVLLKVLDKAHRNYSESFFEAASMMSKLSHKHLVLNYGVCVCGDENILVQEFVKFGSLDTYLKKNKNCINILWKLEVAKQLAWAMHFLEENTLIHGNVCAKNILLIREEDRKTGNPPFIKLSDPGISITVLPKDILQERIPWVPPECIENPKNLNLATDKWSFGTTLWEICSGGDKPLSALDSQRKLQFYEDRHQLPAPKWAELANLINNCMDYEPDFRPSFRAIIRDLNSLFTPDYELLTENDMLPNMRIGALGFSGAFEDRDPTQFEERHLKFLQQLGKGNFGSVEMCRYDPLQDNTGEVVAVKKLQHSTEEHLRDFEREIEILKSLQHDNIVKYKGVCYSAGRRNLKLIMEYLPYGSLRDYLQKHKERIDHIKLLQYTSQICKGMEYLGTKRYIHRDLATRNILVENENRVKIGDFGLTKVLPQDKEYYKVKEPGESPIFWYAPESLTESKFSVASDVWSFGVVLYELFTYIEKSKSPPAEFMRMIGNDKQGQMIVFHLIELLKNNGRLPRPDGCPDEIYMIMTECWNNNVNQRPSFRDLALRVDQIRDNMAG

Structure (SMILES): COC(=O)N[C@@H](C)CNc1nccc(-c2cn(C(C)C)nc2-c2cc(Cl)cc(NS(C)(=O)=O)c2F)n1 [ENCORAFENIB]
- Kd [1]: > 30 µM (inactive)
- Kd [2]: > 30 µM (inactive)
- Kd [3]: > 30 µM (inactive)

Structure (SMILES): Cc1cc(-c2cc(O)ccc2Cl)cc2nnc(Nc3ccc(OCCN4CCCC4)cc3)nc12
- Kd [4]: > 30 µM (inactive)
- Kd [5]: > 30 µM (inactive)

Structure (SMILES): CCCS(=O)(=O)Nc1ccc(F)c(C(=O)c2c[nH]c3ncc(-c4ccc(Cl)cc4)cc23)c1F [VEMURAFENIB]
- Kd [1]: > 30 µM (inactive)
- Kd [2]: > 30 µM (inactive)
- Kd [3]: > 30 µM (inactive)

Structure (SMILES): CC[C@H](Nc1ncnc2[nH]cnc12)c1nc2cccc(F)c2c(=O)n1-c1ccccc1 [IDELALISIB]
- Kd [6]: > 30 µM (inactive)
- Kd [7]: > 30 µM (inactive)
- Kd [8]: > 30 µM (inactive)
- Kd [9]: > 30 µM (inactive)

Structure (SMILES): CNS(=O)(=O)Nc1nccc(Cc2c(C)c3ccc(Oc4ncccn4)cc3oc2=O)c1F [AVUTOMETINIB]
- Kd [2]: > 30 µM (inactive)

Structure (SMILES): Cc1cn(-c2cc(NC(=O)c3ccc(C)c(Nc4nccc(-c5cccnc5)n4)c3)cc(C(F)(F)F)c2)cn1 [NILOTINIB]
- Kd [5]: > 30 µM (inactive)

Structure (SMILES): CC(=O)Nc1cccc(-n2c(=O)n(C3CC3)c(=O)c3c(Nc4ccc(I)cc4F)n(C)c(=O)c(C)c32)c1 [TRAMETINIB]
- Kd [11]: > 30 µM (inactive)
- Kd [1]: > 30 µM (inactive)
- Kd [10]: > 30 µM (inactive)
- Kd [2]: > 30 µM (inactive)

Structure (SMILES): O=c1sn(-c2cccc3ccccc23)c(=O)n1Cc1ccccc1 [TIDEGLUSIB]
- Kd [1]: > 30 µM (inactive)
- Kd [3]: > 30 µM (inactive)

Structure (SMILES): CCc1cnn2c(NCc3ccc[n+]([O-])c3)cc(N3CCCC[C@H]3CCO)nc12 [DINACICLIB]
- Kd [6]: 0.56 µM (active)
- Kd [3]: > 30 µM (inactive)
- Kd [7]: > 30 µM (inactive)
- Kd [8]: > 30 µM (inactive)
- Kd [9]: > 30 µM (inactive)

Structure (SMILES): C=CC(=O)N1CCC(Oc2cc3c(Nc4ccc(Cl)c(Cl)c4F)ncnc3cc2OC)CC1 [POZIOTINIB]
- Kd [5]: > 30 µM (inactive)

Structure (SMILES): CC(C)Nc1cc(-c2c[nH]c(C(=O)N[C@H](CO)c3cccc(Cl)c3)c2)c(Cl)cn1 [ULIXERTINIB]
- Kd [1]: > 30 µM (inactive)
- Kd [3]: > 30 µM (inactive)

Structure (SMILES): O=C(Nc1cccc(Cl)c1)Nc1ncc(CCNc2ncnc3ccsc23)s1 [SNS-314]
- Kd [1]: > 30 µM (inactive)

Structure (SMILES): CN1CC[C@@H](c2c(O)cc(O)c3c(=O)cc(-c4ccccc4Cl)oc23)[C@@H]1CO
- Kd [3]: > 30 µM (inactive)
- Kd [5]: > 30 µM (inactive)

Structure (SMILES): CNC(=O)c1ccc(-c2cnc3ncc(Cc4ccc5ncccc5c4)n3n2)cc1F [CAPMATINIB]
- Kd [11]: > 30 µM (inactive)
- Kd [3]: > 30 µM (inactive)

Structure (SMILES): CNC(=O)CN1CCC(Oc2cc3c(Nc4cccc(Cl)c4F)ncnc3cc2OC)CC1 [SAPITINIB]
- Kd [3]: > 30 µM (inactive)

Structure (SMILES): Cc1ccc(S(=O)(=O)Nc2nc3ccccc3nc2Nc2ccc3nsnc3c2)cc1
- Kd [4]: > 30 µM (inactive)
- Kd [3]: > 30 µM (inactive)

Structure (SMILES): CN1CCN(c2ccc3nc(-c4c(N)c5c(F)cccc5[nH]c4=O)[nH]c3c2)CC1 [DOVITINIB]
- Kd [1]: > 30 µM (inactive)

Structure (SMILES): COc1cc2nccc(Oc3ccc(NC(=O)NC4CC4)c(Cl)c3)c2cc1C(N)=O [LENVATINIB]
- Kd [2]: > 30 µM (inactive)

Structure (SMILES): O=C(c1ccc(F)c(F)c1Nc1ccc(I)cc1F)N1CC(O)([C@@H]2CCCCN2)C1 [COBIMETINIB]
- Kd [5]: > 30 µM (inactive)

Structure (SMILES): CNC(=O)c1cc(Oc2ccc(NC(=O)Nc3ccc(Cl)c(C(F)(F)F)c3)c(F)c2)ccn1 [REGORAFENIB]
- Kd [1]: > 30 µM (inactive)
- Kd [6]: > 30 µM (inactive)
- Kd [7]: > 30 µM (inactive)
- Kd [8]: > 30 µM (inactive)
- Kd [9]: > 30 µM (inactive)

Structure (SMILES): COc1cc2nccc(Oc3ccc(NC(=O)Nc4cc(C)on4)c(Cl)c3)c2cc1OC [TIVOZANIB]
- Kd [1]: > 30 µM (inactive)
- Kd [3]: > 30 µM (inactive)

Structure (SMILES): Cc1ccc(NC(=O)c2ccc(CN3CC[C@H](N(C)C)C3)c(C(F)(F)F)c2)cc1Nc1nccc(-c2cncnc2)n1 [BAFETINIB]
- Kd [4]: > 30 µM (inactive)
- Kd [1]: > 30 µM (inactive)
- Kd [2]: > 30 µM (inactive)

Structure (SMILES): CCS(=O)(=O)N1CC(CC#N)(n2cc(-c3ncnc4[nH]ccc34)cn2)C1 [BARICITINIB]
- Kd [11]: > 30 µM (inactive)

Structure (SMILES): Cc1c(F)cc(C(=O)NC2CC2)cc1-c1ccc(C(=O)NCC(C)(C)C)cn1 [LOSMAPIMOD]
- Kd [3]: > 30 µM (inactive)

Structure (SMILES): CC[C@@H]1C(=O)N(C)c2cnc(Nc3ccc(C(=O)N[C@H]4CC[C@H](N5CCN(CC6CC6)CC5)CC4)cc3OC)nc2N1C(C)C [VOLASERTIB]
- Kd [1]: > 30 µM (inactive)
- Kd [6]: > 30 µM (inactive)
- Kd [2]: > 30 µM (inactive)
- Kd [7]: > 30 µM (inactive)
- Kd [8]: > 30 µM (inactive)
- Kd [9]: > 30 µM (inactive)

Structure (SMILES): COC(=O)[C@@]1(O)C[C@H]2O[C@]1(C)n1c3ccccc3c3c4c(c5c6ccccc6n2c5c31)C(=O)NC4 [K-252A]
- Kd [4]: > 30 µM (inactive)
- Kd [1]: > 30 µM (inactive)
- Kd [3]: 0.041 µM

Structure (SMILES): Cc1cc2c(F)c(Oc3ncnn4cc(OC[C@@H](C)OC(=O)[C@H](C)N)c(C)c34)ccc2[nH]1 [BRIVANIB ALANINATE]
- Kd [2]: > 30 µM (inactive)

Structure (SMILES): Cc1ccc(-n2nc(C(C)(C)C)cc2NC(=O)NCc2cc(F)ccc2Oc2ccc3c(cnn3CCO)c2)cc1 [PEXMETINIB]
- Kd [3]: 2.81 µM

Now from value to compound:

- Kd [10]: > 30 µM (inactive)
- Kd [2]: 0.025 µM (active)
Structure (SMILES): O=C(O)[C@]1(Cc2cccc(Nc3nccs3)n2)CC[C@@H](Oc2cccc(Cl)c2F)CC1 [MK-5108]

- Kd [3]: > 30 µM (inactive)
Structure (SMILES): OCCn1cc(-c2cnc3nnn(Cc4ccc5ncccc5c4)c3n2)cn1 [PF-04217903]

- Kd [1]: > 30 µM (inactive)
Structure (SMILES): Cn1cc(-c2ccc3nnc(C(F)(F)c4ccc5ncccc5c4)n3n2)cn1 [JNJ-38877605]

- Kd [11]: > 30 µM (inactive)
- Kd [1]: > 30 µM (inactive)
Structure (SMILES): Cc1cc(Nc2cc(N3CCN(C)CC3)nc(/C=C/c3ccccc3)n2)n[nH]1 [ENMD-2076]

- Kd [4]: > 30 µM (inactive)
- Kd [3]: > 30 µM (inactive)
Structure (SMILES): O=C(Nc1ccc(-c2ccnc(Nc3ccc(N4CCOCC4)cc3)n2)cc1)C1CCCN1 (stereo not given) [XL-019]

- Kd [4]: > 30 µM (inactive)
- Kd [11]: > 30 µM (inactive)
- Kd [3]: > 30 µM (inactive)
Structure (SMILES): COc1cc(CCc2cc(NC(=O)c3ccc(N4C[C@@H](C)N[C@@H](C)C4)cc3)n[nH]2)cc(OC)c1 [AZD-4547]

- Kd [3]: > 30 µM (inactive)
Structure (SMILES): CN1CCC(CNc2ccc3ncc(-c4cccc(OC(F)(F)F)c4)n3n2)CC1 [SGI-1776]

- Kd [3]: > 30 µM (inactive)
Structure (SMILES): Cc1cc([C@@H](C)Nc2ccccc2C(=O)O)c2nc(N3CCOCC3)cc(=O)n2c1 [AZD-6482]
